Results reported in PubChem BioAssay AID1963442 (Molecular Pharmacology Branch, DTP, NCI, 2024).

System: MPNST complex spheroid with HUVEC/MSC, growth, % test/control
Assay: Anticancer human tumor MPNST cell line growth inhibition [Asc];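 also: compounds left on spheroids for seven days before reading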
Conditions: for IC50: curve of first compound; for viability, T/C: stronger effect = lower value
Experimental: Multicellular complex tumor spheroid response to apoptosis pathway targeting inhibitors Alrizomadlin, Pelcitoclax, and Dasminapant in combination with a variety of drugs and investigational agents in selected tumor cell lines
The MDM2 inhibitor alrizomadlin, the Bcl-2/Bcl-xL inhibitor pelcitoclax, and the IAPs inhibitor dasminapant were evaluated both individually and in combination with standard of care and investigational anticancer small molecules within a complex spheroid model of solid tumors. . Complex spheroids include a stromal component modeled by human endothelial cells (HUVEC) and fibroblasts modeled by human mesenchymal stem cells (MSCs). The concentration ranges selected for each drug and investigational agent were based upon clinically achievable concentrations if the clinical Cmax of the agent was known.
Compounds. The drugs and investigational agents: alrizomadlin (APG-115; NSC831270), pelcitoclax (APG-1252; NSC835773), dasminapant (APG-1387;NSC834197), TAK-243 (NSC785004), copanlisib (NSC809693), olaparib (NSC753686), talazoparib (NSC767125), cobimetinib (NSC 768068), eltanexor (KPT-8602, NSC 794443), abemaciclib (NSC 768073), sotorasib (NSC818433), adagrasib (NSC 831453), MRTX-1133 (NSC 836407), Iadademestat (ORY1001, NSC 806812), and RMC-4630 (NSC839698), were obtained from the NCI Developmental Therapeutics Program Chemical Repository. The FDA-approved anticancer drug set is available from the Developmental Therapeutics Program at https://dtp.cancer.gov/organization/dscb/obtaining/available plates.htm. […] The stock solutions were prepared in dimethyl sulfoxide (DMSO, Sigma-Aldrich, St. Louis, MO, cat. D2650) at 800-fold the tested concentration and stored at -70 degrees C prior to their use. All drugs and investigational agents were tested over a range starting from a high concentration at or near the clinical Cmax and decreasing in half-log increments. If the clinical Cmax for an agent had not been determined, the highest concentration tested was 10 microM.
The patient-derived cancer (PDC) cell lines include five colon adenocarcinomas: 186277-243-T-J2-PDC, 616215-338-R-J1-PDC, 439559-082-T-J2-PDC, 463943-066-T-J2-PDC, and 519858-162-T-J1-PDC; three pancreatic carcinomas: 323965-272-R-J2-PDC, 521955-158-R6-J3-PDC, and 521955-158-R2-J5-PDC; two uterine sarcomas: 327498-152-R-J2-PDC and 993429-296-R-J1-PDC; two rhabdomyosarcomas: 755483-174-R-J1-PDC and 772245-204-R-J1-PDC; two soft tissue sarcomas: 126254-015-R-J1-PDC and 494315-158-R-J1-PDC; two malignant fibrous histiocytomas: 317291-083-R-J1-PDC and 596521-263-R-J1-PDC; two breast carcinomas: 171881-019-R-J1-PDC and 885512-296-R-J2-PDC; and one ovarian carcinoma: 6556581-035-R-J-PDC were obtained from the NCI PDMR, (https://pdmr.cancer.gov). The established cell lines HSSY-2 synovial sarcoma (RRID:CVCL 8719), SYO-1 synovial sarcoma (RRID:CVCL_7146), MPNST malignant peripheral neural sheath tumor were obtained from the Sloan Kettering Institute. The following established cell lines were purchased from the American Type Culture Collection (ATCC, Manassas, VA), Sor the received from the NCI repository:, PANC-1 pancreatic carcinoma (CRL-1469, RRID:CVCL_0480), OVCAR-5 ovarian carcinoma (RRID:CVCL_1628), OVCAR-8 ovarian carcinoma (RRID:CVCL_1629), , MCF-7 breast carcinoma (CRL-12584, RRID:CVCL_0031), MDA-MB-231 breast carcinoma (CRL-12532, RRID:CVCL_0062), NCI-H1876 small cell lung carcinoma (CRL-5902, RRID:CVCL_1503), NCI-H510A small cell lung carcinoma (HTB-184, RRID:CVCL_1565), NCI-H1417 (CRL-5869, RRID:CVCL_1469), and NCI-H196 small cell lung carcinoma (CRL-5823, RRID:CVCL_1509). Dr. Peter Houghton (Greehey Children's Cancer Research Institute, University of Texas Health Science Center, San Antonio, TX) provided Rh-18 rhabdomyosarcoma (RRID:CVCL_1659). Pooled donor human umbilical vein endothelial cells (HUVEC, Lonza, cat. CC-2519) and human mesenchymal stem cells (hMSC, Lonza, cat. PT-2501) were purchased from Lonza (Walkersville, MD).
Cell Culture. […]

NC(=O)C(=Cn1cnc(-c2cc(C(F)(F)F)cc(C(F)(F)F)c2)n1)c1cncnc1 + CNC(C)C(=O)NC1CN(S(=O)(=O)c2cccc(S(=O)(=O)N3CCC4CCC(C(=O)NC(c5ccccc5)c5ccccc5)N4C(=O)C(NC(=O)C(C)NC)C3)c2)CCC2CCC(C(=O)NC(c3ccccc3)c3ccccc3)N2C1=O
IC50 (second compound 0.00316 µM): 0.0116 µM
IC50 (second compound 0.01 µM): 0.0546 µM
IC50 (second compound 0.0316 µM): 0.163 µM
IC50 (second compound 0.1 µM): 0.0527 µM
IC50 (second compound 0.316 µM): 0.0181 µM
IC50 (second compound 1 µM): 0.0698 µM
viability, T/C (second compound 0.00316 µM, first compound 0.000949 µM): 68.7%
viability, T/C (second compound 0.00316 µM, first compound 0.003 µM): 65%
viability, T/C (second compound 0.00316 µM, first compound 0.00949 µM): 49.3%
viability, T/C (second compound 0.00316 µM, first compound 0.03 µM): 43.9%
viability, T/C (second compound 0.00316 µM, first compound 0.0949 µM): 28%
viability, T/C (second compound 0.00316 µM, first compound 0.3 µM): 30.8%
viability, T/C (second compound 0.01 µM, first compound 0.000949 µM): 78.4%
viability, T/C (second compound 0.01 µM, first compound 0.003 µM): 73%
viability, T/C (second compound 0.01 µM, first compound 0.00949 µM): 84.1%
viability, T/C (second compound 0.01 µM, first compound 0.03 µM): 66.3%
viability, T/C (second compound 0.01 µM, first compound 0.0949 µM): 34.6%
viability, T/C (second compound 0.01 µM, first compound 0.3 µM): 35.3%
viability, T/C (second compound 0.0316 µM, first compound 0.000949 µM): 58.5%
viability, T/C (second compound 0.0316 µM, first compound 0.003 µM): 72%
viability, T/C (second compound 0.0316 µM, first compound 0.00949 µM): 70.5%
viability, T/C (second compound 0.0316 µM, first compound 0.03 µM): 82.1%
viability, T/C (second compound 0.0316 µM, first compound 0.0949 µM): 59.2%
viability, T/C (second compound 0.0316 µM, first compound 0.3 µM): 34.9%
viability, T/C (second compound 0.1 µM, first compound 0.000949 µM): 101%
viability, T/C (second compound 0.1 µM, first compound 0.003 µM): 80.7%
viability, T/C (second compound 0.1 µM, first compound 0.00949 µM): 103%
viability, T/C (second compound 0.1 µM, first compound 0.03 µM): 62.3%
viability, T/C (second compound 0.1 µM, first compound 0.0949 µM): 37.5%
viability, T/C (second compound 0.1 µM, first compound 0.3 µM): 36.9%
viability, T/C (second compound 0.316 µM, first compound 0.000949 µM): 72.6%
viability, T/C (second compound 0.316 µM, first compound 0.003 µM): 49.9%
viability, T/C (second compound 0.316 µM, first compound 0.00949 µM): 60.5%
viability, T/C (second compound 0.316 µM, first compound 0.03 µM): 46%
viability, T/C (second compound 0.316 µM, first compound 0.0949 µM): 43.7%
viability, T/C (second compound 0.316 µM, first compound 0.3 µM): 34.4%
viability, T/C (second compound 1 µM, first compound 0.000949 µM): 63.2%
viability, T/C (second compound 1 µM, first compound 0.003 µM): 59%
viability, T/C (second compound 1 µM, first compound 0.00949 µM): 66.2%
viability, T/C (second compound 1 µM, first compound 0.03 µM): 55.6%
viability, T/C (second compound 1 µM, first compound 0.0949 µM): 47.8%
viability, T/C (second compound 1 µM, first compound 0.3 µM): 36%

CNC(C)C(=O)NC1CN(S(=O)(=O)c2cccc(S(=O)(=O)N3CCC4CCC(C(=O)NC(c5ccccc5)c5ccccc5)N4C(=O)C(NC(=O)C(C)NC)C3)c2)CCC2CCC(C(=O)NC(c3ccccc3)c3ccccc3)N2C1=O (configuration not stated) + CCN1C(C(=O)NC23CCC(C(=O)O)(CC2)CC3)C(c2cccc(Cl)c2F)C2(C(=O)Nc3cc(Cl)ccc32)C12CCCCC2
IC50 (second compound 0.03 µM): > 1 µM
IC50 (second compound 0.0949 µM): > 1 µM
IC50 (second compound 0.3 µM): > 1 µM
IC50 (second compound 0.949 µM): > 1 µM
IC50 (second compound 3 µM): > 1 µM
viability, T/C (second compound 0.03 µM, first compound 0.00316 µM): 74.7%
viability, T/C (second compound 0.03 µM, first compound 0.01 µM): 78.1%
viability, T/C (second compound 0.03 µM, first compound 0.0316 µM): 94.7%
viability, T/C (second compound 0.03 µM, first compound 0.1 µM): 114%
viability, T/C (second compound 0.03 µM, first compound 0.316 µM): 106%
viability, T/C (second compound 0.03 µM, first compound 1 µM): 93%
viability, T/C (second compound 0.0949 µM, first compound 0.00316 µM): 92.5%
viability, T/C (second compound 0.0949 µM, first compound 0.01 µM): 93.9%
viability, T/C (second compound 0.0949 µM, first compound 0.0316 µM): 100%
viability, T/C (second compound 0.0949 µM, first compound 0.1 µM): 100%
viability, T/C (second compound 0.0949 µM, first compound 0.316 µM): 108%
viability, T/C (second compound 0.0949 µM, first compound 1 µM): 89.3%
viability, T/C (second compound 0.3 µM, first compound 0.00316 µM): 101%
viability, T/C (second compound 0.3 µM, first compound 0.01 µM): 99.7%
viability, T/C (second compound 0.3 µM, first compound 0.0316 µM): 99.4%
viability, T/C (second compound 0.3 µM, first compound 0.1 µM): 99.8%
viability, T/C (second compound 0.3 µM, first compound 0.316 µM): 96.6%
viability, T/C (second compound 0.3 µM, first compound 1 µM): 122%
viability, T/C (second compound 0.949 µM, first compound 0.00316 µM): 98.1%
viability, T/C (second compound 0.949 µM, first compound 0.01 µM): 93.2%
viability, T/C (second compound 0.949 µM, first compound 0.0316 µM): 107%
viability, T/C (second compound 0.949 µM, first compound 0.1 µM): 104%
viability, T/C (second compound 0.949 µM, first compound 0.316 µM): 105%
viability, T/C (second compound 0.949 µM, first compound 1 µM): 106%
viability, T/C (second compound 3 µM, first compound 0.00316 µM): 86.2%
viability, T/C (second compound 3 µM, first compound 0.01 µM): 86.9%
viability, T/C (second compound 3 µM, first compound 0.0316 µM): 100%
viability, T/C (second compound 3 µM, first compound 0.1 µM): 104%
viability, T/C (second compound 3 µM, first compound 0.316 µM): 93.8%
viability, T/C (second compound 3 µM, first compound 1 µM): 118%
